According to patent US9526785B2, “Pharmaceuticals for oral delivery” (Enteris BioPharma, Inc., priority 2013, dated 2016):
Where two headings read alike, the source gives them in different places.

Test: Tigecycline plasma PK and % F after intraduodenal (ID) injection in anesthetized rats
Type: in vivo, Sprague-Dawley Rats
Settings: for AUC(0-t) / Tmax / bioavailability / Cmax: female, Sprague-Dawley, rat, plasma; for bioavailability: read-out: % F, mean
Method: Animals weighed approximately 250 g at the time of testing. Rats were fasted overnight (with water available), prior to dosing.
Intravenous (IV) doses were administered as a bolus injection into the left carotid […] at a dose volume of 1.6 mL/kg. Intraduodenal doses were administered as bolus injections into the duodenum at a dose volume of 1.2 mL/kg.
An additional study was conducted exploring the effect of formulation pH at constant CA and LLC concentrations (RA867).
Female rats were maintained in groups of 3 per polycarbonate (or equivalent) shoebox cage with fresh wood chip bedding at 20-22° C. under a 12 hour on/off light:dark cycle. […] After the rats went limp they were injected intraperitoneally (IP) with 0.1 mL ketamine/xylazine. The anesthetic state was maintained by IP injection of ketamine/xylazine on an as needed basis. Animal weights were determined post-anesthesia induction.
An indwelling catheter for blood sampling was inserted into the right carotid artery by exposing the trachea with Mayo scissors, clamping the bottom of the […] and tying off the top with surgical suture. The area between was nicked with small sharp scissors and Intramedic polyethylene tubing was inserted into the nicked area. The artery with the tubing was sealed with suture to prevent leakage. A 23-gauge Intramedic Luer Stub Adapter was inserted into the cannula and attached to a 3 way valve which was connected to a 3 cc syringe filled with 0.9% normal saline and a 1 cc syringe filled with 5 U/mL sodium heparin for blood sampling.
An intraduodenal injection was utilized to mimic oral delivery of an enterically coated capsule or tablet formulation. […] Mayo scissors were used to expose the duodenum and the site of administration was identified by measuring 5 cm from the junction of the stomach and the duodenum towards the jejunum. The measured site was identified by inserting a small piece of surgical suture underneath the site for injection. After the formulation was injected, the abdominal cavity was closed with surgical clips.
Blood samples were collected in tubes containing 20 μL 180 mM EDTA. The tubes were maintained on ice and then centrifuged at approximately 3000 rpm at 4° C. for 5 minutes. Plasma was harvested immediately after centrifugation of the samples and stored at −20° C. pending analysis.
Minocycline (VWR international) was used as an internal standard. Sample processing/clean-up of plasma samples was carried out offline by protein precipitation with acidified acetonitrile.
The HPLC system consisted of Shimadzu SIL-HTc HPLC system equipped with dual Shimadzu LC-10ADvp isopumps, a Shimadzu CTO-10ASvp column temperature controller and a Shimadzu SPD-10Avp variable wavelength detector. […] Mobile phase A consisted of 23 mM phosphate buffer pH 2.5 with 6 mM 1-octanesulfonic acid, while mobile phase B consisting of pure acetonitrile. […] The mobile phase flow rate was 1.2 mL/min. Detection was performed using the SPD-10Avp variable wavelength detector set at 350 nm, with a sensitivity of 0.001 aufs.
The samples were then centrifuged under refrigeration at 13 k rpm for 30 minutes. The supernatant was taken and the liquid was removed to dryness in a turbovap. The samples were then reconstituted in 55 μL 0.1M phosphate buffer, pH 3.8. Samples were maintained at 10° C. while on the autoinjector during sequence. The injection volume was 50 μL. The unknown concentration in rat plasma samples was determined by interpolation of the peak area ratios of analyte:internal standard versus the ratio of their nominal concentrations into the regression line obtained from calibration standards spiked in pooled rat plasma. No regression weighting was used for the calculations. […] The calibration curve covered the range of 0.05 μg/mL to 5.0 μg/mL.

[1] = ID, 400 mM CA (pH 3.5), 26 mM LLC, 4.8 mg/kg (RA851), parent Tigecycline peak only, 4.8 mg/kg
[2] = ID, 400 mM CA (pH 3.5), 26 mM LLC, 9.0 mg/kg (RA853), parent Tigecycline peak only, 9 mg/kg
[3] = 4.6 mg/kg, RA861, ID, 26 mM LLC alone, mean dose 4.6 mg/kg
[4] = 4.6 mg/kg, RA861, ID, 400 mM CA/26 mM LLC, mean dose 4.6 mg/kg
[5] = 4.8 mg/kg, ID, PBS, 4.8 mg/kg (RA851)
[6] = 4.8 mg/kg, RA861, ID, 400 mM CA alone, mean dose 4.8 mg/kg
[7] = 4.8 mg/kg, pH 3.5, ID, 100 mM CA (pH 3.5), 26 mM LLC, 4.8 mg/kg (RA851)
[8] = 4.8 mg/kg, pH 3.5, ID, 400 mM CA (pH 3.5), 26 mM LLC, 4.8 mg/kg (RA851), parent Tigecycline peak only
[9] = 4.8 mg/kg, pH 3.5, RA867, ID, 400 mM CA/26 mM LLC pH 3.5, 4.8 mg/kg
[10] = 4.8 mg/kg, pH 6, RA867, ID, 400 mM CA/26 mM LLC pH 6.0, 4.8 mg/kg
[11] = 9 mg/kg, ID, PBS, 9.0 mg/kg (RA853), without animal RA853-6
[12] = 9 mg/kg, pH 3.5, ID, 100 mM CA (pH 3.5), 26 mM LLC, 9.0 mg/kg (RA853)
[13] = 9 mg/kg, pH 3.5, ID, 400 mM CA (pH 3.5), 26 mM LLC, 9.0 mg/kg (RA853), parent Tigecycline peak only

Q: With CN(C)c1cc(NC(=O)CNC(C)(C)C)c(O)c2c1C[C@H]1C[C@H]3[C@H](N(C)C)C(O)=C(C(N)=O)C(=O)[C@@]3(O)C(O)=C1C2=O [Tigecycline] as the molecule, how does the “increase of tigecycline plasma concentrations” value (ID, 26 mM LLC and 100 mM citrate pH 3.5, versus PBS) read?
A: 7-9 x

Q: And the “Cmax, Mean” value (ID, 100 mM CA (pH 3.5), 26 mM LLC, 4.8 mg/kg (RA851), 4.8 mg/kg)?
A: 714 ng/mL

Q: And the “% F, Mean” value (ID, 100 mM CA (pH 3.5), 26 mM LLC, 4.8 mg/kg (RA851), relative to 0.64 mg/kg IV)?
A: 10.85%

Q: What about the “Tmax, Mean” value (ID, 100 mM CA (pH 3.5), 26 mM LLC, 9.0 mg/kg (RA853), 9 mg/kg) of the same molecule?
A: 16.667 min

Q: And the “% F, Mean” value (ID, 100 mM CA (pH 3.5), 26 mM LLC, 9.0 mg/kg (RA853), relative to 12 mg/kg IV)?
A: 11.36%

Q: What about the “increase of mean % F” value (ID, 100 mM CA pH 3.5, 26 mM LLC, versus PBS) of the same molecule?
A: 4-7 fold

Q: And the “Cmax, Mean” value [1]?
A: 792 ng/mL

Q: What about the “Tmax, Mean” value [1] of the same molecule?
A: 16.7 min

Q: What about the “AUC(0-t), Mean” value [2] of the same molecule?
A: 137.6 µg·min/mL

Q: What about the “Cmax, Mean” value [2] of the same molecule?
A: 2492 ng/mL

Q: What about the “AUC(0-t), Mean” value (ID, PBS, 9.0 mg/kg (RA853), without animal RA853-6, 9 mg/kg) of the same molecule?
A: 15.7 µg·min/mL

Q: What about the “% F, Mean” value (ID, PBS, 9.0 mg/kg (RA853), without animal RA853-6, relative to 12 mg/kg IV) of the same molecule?
A: 2.76%

Q: And the AUC(0-t) [3]?
A: 68 ng·h/mL

Q: And the Tmax [3]?
A: 18 min

Q: What about the bioavailability [3] of the same molecule?
A: 1%

Q: And the Cmax (4.6 mg/kg, RA861, ID, 26 mM LLC alone, mean dose 4.6 mg/kg, read-out: Cmax, mean)?
A: 64.1 ng/mL

Q: What about the AUC(0-t) [4] of the same molecule?
A: 139 ng·h/mL

Q: What about the Tmax [4] of the same molecule?
A: 10 min

Q: What about the bioavailability [4] of the same molecule?
A: 2.1%

Q: What about the Cmax (4.6 mg/kg, RA861, ID, 400 mM CA/26 mM LLC, mean dose 4.6 mg/kg, read-out: Cmax, mean) of the same molecule?
A: 30.6 ng/mL

Q: What about the AUC(0-t) [5] of the same molecule?
A: 116 ng·h/mL

Q: What about the Tmax [5] of the same molecule?
A: 90 min

Q: What about the Cmax (4.8 mg/kg, ID, PBS, 4.8 mg/kg (RA851), read-out: Cmax, Mean) of the same molecule?
A: 100 ng/mL

Q: And the AUC(0-t) [6]?
A: 17.5 ng·h/mL

Q: And the Tmax [6]?
A: 20 min

Q: And the bioavailability [6]?
A: 0.3%

Q: What about the Cmax (4.8 mg/kg, RA861, ID, 400 mM CA alone, mean dose 4.8 mg/kg, read-out: Cmax, mean) of the same molecule?
A: 11.7 ng/mL

Q: What about the AUC(0-t) [7] of the same molecule?
A: 823 ng·h/mL

Q: And the Tmax [7]?
A: 20 min

Q: And the Cmax (4.8 mg/kg, pH 3.5, ID, 100 mM CA (pH 3.5), 26 mM LLC, 4.8 mg/kg (RA851), read-out: Cmax, Mean)?
A: 710 ng/mL

Q: And the AUC(0-t) [8]?
A: 1430 ng·h/mL

Q: What about the Tmax [8] of the same molecule?
A: 17 min

Q: What about the Cmax (4.8 mg/kg, pH 3.5, ID, 400 mM CA (pH 3.5), 26 mM LLC, 4.8 mg/kg (RA851), parent Tigecycline peak only, read-out: Cmax, Mean) of the same molecule?
A: 790 ng/mL

Q: And the AUC(0-t) [9]?
A: 537 ng·h/mL

Q: And the Tmax [9]?
A: 12 min

Q: And the bioavailability [9]?
A: 7.7%

Q: And the Cmax (4.8 mg/kg, pH 3.5, RA867, ID, 400 mM CA/26 mM LLC pH 3.5, 4.8 mg/kg, read-out: Cmax, mean)?
A: 488 ng/mL

Q: And the AUC(0-t) [10]?
A: 385 ng·h/mL

Q: And the Tmax [10]?
A: 43 min

Q: What about the bioavailability [10] of the same molecule?
A: 5.5%

Q: What about the Cmax (4.8 mg/kg, pH 6, RA867, ID, 400 mM CA/26 mM LLC pH 6.0, 4.8 mg/kg, read-out: Cmax, mean) of the same molecule?
A: 278 ng/mL

Q: And the AUC(0-t) [11]?
A: 262 ng·h/mL

Q: What about the Tmax [11] of the same molecule?
A: 30 min

Q: And the Cmax (9 mg/kg, ID, PBS, 9.0 mg/kg (RA853), without animal RA853-6, read-out: Cmax, Mean)?
A: 220 ng/mL

Q: What about the AUC(0-t) [12] of the same molecule?
A: 1280 ng·h/mL

Q: And the Tmax [12]?
A: 17 min

Q: And the Cmax (9 mg/kg, pH 3.5, ID, 100 mM CA (pH 3.5), 26 mM LLC, 9.0 mg/kg (RA853), read-out: Cmax, Mean)?
A: 2060 ng/mL

Q: And the AUC(0-t) [13]?
A: 2300 ng·h/mL

Q: What about the Tmax [13] of the same molecule?
A: 10 min

Q: What about the Cmax (9 mg/kg, pH 3.5, ID, 400 mM CA (pH 3.5), 26 mM LLC, 9.0 mg/kg (RA853), parent Tigecycline peak only, read-out: Cmax, Mean) of the same molecule?
A: 2490 ng/mL

Q: What about the AUC(0-t) ([…], RA869, ID, 26 mM LLC only) of the same molecule?
A: 91.7 ng·h/mL

Q: And the Tmax ([…], RA869, ID, 26 mM LLC only)?
A: 10 min

Q: What about the bioavailability ([…], RA869, ID, 26 mM LLC only, […]) of the same molecule?
A: 8.9%
